The text below walks through data of patent US11542492B2 (Celgene CAR LLC, priority 2009, dated 2023).

Common to all, as to type: biochemical
One assay has as its target T1, p120γ (PI3Kγ) (Homo sapiens, UniProt P48736).
T1 construct: purchased BPS Bioscience 40625
The assay is described as follows: HTRF assay, p120γ. The note with it: PI3Kγ; read-out: PI3Kγ HTRF IC50 Inhibition Designation. From the text: The protocol below describes an end-point, competition-binding HTRF assay used to measure inherent potency of test compounds against active p110α/p85α, p110β/p85α, p120γ enzymes. The mechanics of the assay platform are best described by the vendor (Millipore, Billerica, Mass.) on their website at the following URL: http://www.millipore.com/coa/tech1/74jt4z.
Briefly, Stop solution (Stop A, #33-007 and Stop B, #33-009; 3:1 ratio) and Detection Mix (DMC, #33-015 with DMA, #33-011 and DMB, #33-013; 18:1:1 ratio) were prepared as recommended by the manufacturer ˜2 hrs prior to use. Additionally, 1× reaction buffer (4× buffer stock #33-003), a 1.4× stock of enzyme from BPS Bioscience (San Diego, Ca) or Millipore (Billerica, Mass.) with di-C8-PIP2 lipid substrate (#33-005), and a 4×ATP solution (#A7699) Sigma/Aldrich (St. Louis, Mo.) were prepared in 1×reaction buffer. 15 μL of enzyme and lipid substrate mix were pre-incubated in a Corning (#3573) 384-well, black, non-treated microtiter plate (Corning, N.Y.) for 30 min at 25° C. with a 0.5 μL volume of 50% DMSO and serially diluted compounds prepared in 50%-75% DMSO. Lipid kinase reactions were started with the addition of 5 μL of ATP solution, mixed for 15 sec on a rotary plate shaker and incubated for 15-30 minutes at 25° C. Next, reactions were stopped with a 5 μL addition of Stop solution followed by a 5 μL volume of Detection Mix. Stopped reactions were equilibrated for 1 and 18 hrs at room temperature and then read in a Synergy4 plate reader from BioTek (Winooski, Vt.) at λex330-80/λem620-35 and λem665-7.5. At the conclusion of each assay, the HTRF ratio from fluorescence emission values for each well was calculated and % Inhibition determined from averaged controls wells. % Inhibition values for each compound re then plotted against inhibitor concentration to estimate IC50 from log [Inhibitor] vs Response, Variable Slope model in GraphPad Prism from GraphPad Software (San Diego, Calif.).
Reagents Used in Optimized Protocol: • [p120γ]=1-4 nM, [ATP]=50 μM, [di-C8-PIP2]=10 μM • (40625; BPS Bioscience)

For the next assay, the target named is T2, p110α/p85α (PI3Kα) (Homo sapiens, UniProt P42336).
T2 construct: purchased BPS Bioscience or Millipore 40620 (BPS Bioscience) or 14-602 (Millipore)
The assay is described as follows: HTRF assay, p110α/p85α. To be noted: read-out: PI3Kα-HTRF-IC50 nM Inhibition Designation. Here is the method:
HTRF Assay Protocol for Potency Assessment Against the Active Form of p110α/p85α:
The mechanics of the assay platform are best described by the vendor (Millipore, Billerica, Mass.) on their website at the following URL: http://www.millipore.com/coa/tech1/74jt4z.
Briefly, Stop solution (Stop A, #33-007 and Stop B, #33-009; 3:1 ratio) and Detection Mix (DMC, #33-015 with DMA, #33-011 and DMB, #33-013; 18:1:1 ratio) were prepared as recommended by the manufacturer ˜2 hrs prior to use. […] Lipid kinase reactions were started with the addition of 5 μL of ATP solution, mixed for 15 sec on a rotary plate shaker and incubated for 15-30 minutes at 25° C. Next, reactions were stopped with a 5 μL addition of Stop solution followed by a 5 μL volume of Detection Mix. […] At the conclusion of each assay, the HTRF ratio from fluorescence emission values for each well was calculated and % Inhibition determined from averaged controls wells. % Inhibition values for each compound re then plotted against inhibitor concentration to estimate IC50 from log [Inhibitor] vs Response, Variable Slope model in GraphPad Prism from GraphPad Software (San Diego, Calif.).
Background: Time-resolved FRET reads energy transfer from a long-lived donor to a nearby acceptor.

Assay [1] deals with T3, HCV NS3/4A 1b protease enzyme (wild type) (Hepatitis C virus genotype 1b, UniProt P26663).
T3 construct: 10× stocks of NS3/4A protease enzyme from Bioenza (Mountain View, Calif.); purchased Bioenza
Put plainly: HCV protease FRET assay (IC50_APP), wild type NS3/4A 1b. Here is the method:
HCV Protease FRET Assay for WT and Mutated NS3/4A 1b Enzymes (IC50_APP).
The following protocol was used to generate “apparent” IC50 (IC50_APP) values as depicted in Table 6, below. Without wishing to be bound by any particular theory, it is believed that IC50_APP, contrasted with IC50 values, may provide a more useful indication of time-dependent inhibition, and are thus more representative of binding affinity. […] 5 μL of each enzyme were added to Corning (#3575) 384-well, black, microtiter plates (Corning, N.Y.) after spotting a 0.5 μL volume of 50% DMSO and serially diluted compounds prepared in 50% DMSO. Protease reactions were immediately started after enzyme addition with the addition of 45 μL of the FRET substrate and monitored for 60-90 minutes at λex485/λem520 in a Synergy plate reader from BioTek (Winooski, Vt.). At the conclusion of each assay, progress curves from each well were examined for linear reaction kinetics and fit statistics (R^2, 95% confidence intervals, absolute sum of squares). Initial velocity (0 minutes to 15+ minutes) from each reaction was determined from the slope of a plot of relative fluorescence units vs time (minutes) and then plotted against inhibitor concentration as a percent of the no inhibitor and no enzyme controls to estimate apparent IC50 from log [Inhibitor] vs Response. (Variable Slope model in GraphPad Prism from GraphPad Software (San Diego, Calif.).)

Each structure is given as a SMILES string. A value given as a limit tells only on which side of the number the result lay.

T2 sequence (P42336 whole entry): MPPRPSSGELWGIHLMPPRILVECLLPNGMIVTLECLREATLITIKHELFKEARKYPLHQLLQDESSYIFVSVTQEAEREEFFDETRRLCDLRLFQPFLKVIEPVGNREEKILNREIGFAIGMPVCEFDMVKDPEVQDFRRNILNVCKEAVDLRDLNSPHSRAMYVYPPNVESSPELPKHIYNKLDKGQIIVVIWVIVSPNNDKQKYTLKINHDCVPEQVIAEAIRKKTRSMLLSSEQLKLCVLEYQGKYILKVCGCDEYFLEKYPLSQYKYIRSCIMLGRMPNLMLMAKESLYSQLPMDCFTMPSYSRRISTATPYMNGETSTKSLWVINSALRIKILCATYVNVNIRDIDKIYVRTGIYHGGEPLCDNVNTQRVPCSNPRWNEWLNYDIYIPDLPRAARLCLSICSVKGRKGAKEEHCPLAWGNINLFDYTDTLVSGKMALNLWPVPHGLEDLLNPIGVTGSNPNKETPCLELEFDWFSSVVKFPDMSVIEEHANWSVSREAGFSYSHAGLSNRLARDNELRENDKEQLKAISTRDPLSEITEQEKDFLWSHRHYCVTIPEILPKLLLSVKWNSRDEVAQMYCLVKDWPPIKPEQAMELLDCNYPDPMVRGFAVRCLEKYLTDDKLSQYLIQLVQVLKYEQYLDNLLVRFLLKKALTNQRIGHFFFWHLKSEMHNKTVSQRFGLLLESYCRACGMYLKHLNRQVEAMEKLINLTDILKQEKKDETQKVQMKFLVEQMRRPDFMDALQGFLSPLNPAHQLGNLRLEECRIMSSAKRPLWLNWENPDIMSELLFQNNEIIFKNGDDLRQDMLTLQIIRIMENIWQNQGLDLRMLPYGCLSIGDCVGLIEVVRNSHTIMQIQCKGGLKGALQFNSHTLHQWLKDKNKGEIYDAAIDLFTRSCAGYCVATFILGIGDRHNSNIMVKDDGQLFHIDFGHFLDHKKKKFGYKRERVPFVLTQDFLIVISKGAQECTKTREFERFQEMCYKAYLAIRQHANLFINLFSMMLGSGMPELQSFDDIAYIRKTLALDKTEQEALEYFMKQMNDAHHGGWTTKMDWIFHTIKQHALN
T2 sequence (P27986 whole entry partner): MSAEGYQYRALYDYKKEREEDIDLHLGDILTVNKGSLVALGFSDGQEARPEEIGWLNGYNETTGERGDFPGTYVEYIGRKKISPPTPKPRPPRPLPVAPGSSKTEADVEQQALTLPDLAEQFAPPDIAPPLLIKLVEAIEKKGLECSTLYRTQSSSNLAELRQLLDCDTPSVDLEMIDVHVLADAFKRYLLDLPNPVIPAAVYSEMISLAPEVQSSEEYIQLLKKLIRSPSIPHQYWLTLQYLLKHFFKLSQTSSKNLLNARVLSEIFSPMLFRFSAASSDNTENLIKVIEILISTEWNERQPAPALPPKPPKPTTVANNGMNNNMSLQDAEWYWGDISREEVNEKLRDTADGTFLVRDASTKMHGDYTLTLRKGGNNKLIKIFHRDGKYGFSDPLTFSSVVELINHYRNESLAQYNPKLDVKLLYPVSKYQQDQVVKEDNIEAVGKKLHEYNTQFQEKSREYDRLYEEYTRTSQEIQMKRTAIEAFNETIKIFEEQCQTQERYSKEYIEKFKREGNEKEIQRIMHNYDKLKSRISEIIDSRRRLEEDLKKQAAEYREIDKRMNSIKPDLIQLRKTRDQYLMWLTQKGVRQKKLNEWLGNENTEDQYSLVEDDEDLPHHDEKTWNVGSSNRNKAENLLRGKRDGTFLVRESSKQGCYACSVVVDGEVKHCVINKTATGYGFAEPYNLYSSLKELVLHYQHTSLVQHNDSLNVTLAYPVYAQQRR
T1 sequence (P48736 whole entry): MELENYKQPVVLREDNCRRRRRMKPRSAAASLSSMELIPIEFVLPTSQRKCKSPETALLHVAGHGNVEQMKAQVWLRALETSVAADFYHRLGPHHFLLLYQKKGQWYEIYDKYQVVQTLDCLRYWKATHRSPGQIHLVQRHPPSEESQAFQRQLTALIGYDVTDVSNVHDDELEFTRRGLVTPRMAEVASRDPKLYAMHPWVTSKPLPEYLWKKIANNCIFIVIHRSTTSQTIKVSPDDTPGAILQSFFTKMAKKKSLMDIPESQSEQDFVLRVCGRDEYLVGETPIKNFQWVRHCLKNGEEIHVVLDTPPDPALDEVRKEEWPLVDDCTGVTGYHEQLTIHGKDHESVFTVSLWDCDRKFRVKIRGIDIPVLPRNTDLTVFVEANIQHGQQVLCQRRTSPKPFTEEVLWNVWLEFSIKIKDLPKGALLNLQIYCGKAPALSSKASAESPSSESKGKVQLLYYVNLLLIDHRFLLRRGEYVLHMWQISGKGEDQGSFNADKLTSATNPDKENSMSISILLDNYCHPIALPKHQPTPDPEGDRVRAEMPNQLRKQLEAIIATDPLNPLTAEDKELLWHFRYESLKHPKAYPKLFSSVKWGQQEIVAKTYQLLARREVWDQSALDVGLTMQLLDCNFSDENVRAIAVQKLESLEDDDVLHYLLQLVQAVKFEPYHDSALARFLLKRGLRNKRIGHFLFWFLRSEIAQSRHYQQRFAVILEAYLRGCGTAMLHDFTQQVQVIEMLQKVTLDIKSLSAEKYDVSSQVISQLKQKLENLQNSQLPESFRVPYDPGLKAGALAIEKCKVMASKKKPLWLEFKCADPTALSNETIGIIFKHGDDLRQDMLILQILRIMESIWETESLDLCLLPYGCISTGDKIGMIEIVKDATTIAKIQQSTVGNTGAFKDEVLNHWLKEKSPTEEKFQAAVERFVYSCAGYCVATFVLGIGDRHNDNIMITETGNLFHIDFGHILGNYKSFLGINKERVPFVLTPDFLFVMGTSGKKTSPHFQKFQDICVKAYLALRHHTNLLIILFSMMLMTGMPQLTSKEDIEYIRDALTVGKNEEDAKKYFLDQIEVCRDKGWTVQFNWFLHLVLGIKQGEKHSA
T3 sequence (P26663 1658-1711): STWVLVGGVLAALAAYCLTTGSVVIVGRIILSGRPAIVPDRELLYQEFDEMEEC
T3 sequence (P26663 1027-1657): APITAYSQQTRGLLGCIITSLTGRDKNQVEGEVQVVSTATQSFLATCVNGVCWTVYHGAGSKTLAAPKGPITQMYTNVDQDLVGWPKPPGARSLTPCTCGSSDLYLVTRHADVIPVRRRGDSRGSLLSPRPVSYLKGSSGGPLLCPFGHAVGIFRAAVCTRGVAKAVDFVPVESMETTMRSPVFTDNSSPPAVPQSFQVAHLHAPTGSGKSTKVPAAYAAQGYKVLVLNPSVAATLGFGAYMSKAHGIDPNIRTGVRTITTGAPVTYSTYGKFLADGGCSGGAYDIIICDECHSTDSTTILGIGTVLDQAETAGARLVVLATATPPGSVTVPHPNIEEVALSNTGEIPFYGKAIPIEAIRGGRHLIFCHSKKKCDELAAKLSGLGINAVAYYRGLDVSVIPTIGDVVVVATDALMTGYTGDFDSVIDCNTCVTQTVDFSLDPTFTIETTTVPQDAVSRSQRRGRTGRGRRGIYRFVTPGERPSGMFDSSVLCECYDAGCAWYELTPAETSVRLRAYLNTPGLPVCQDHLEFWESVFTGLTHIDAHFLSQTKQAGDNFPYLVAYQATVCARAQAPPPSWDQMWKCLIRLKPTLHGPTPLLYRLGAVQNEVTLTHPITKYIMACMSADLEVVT

As usually defined, the IC50 is the midpoint of a concentration-inhibition curve. With `C=CC(=O)Nc1cccc(-c2nc(N3CCOCC3)c3sccc3n2)c1` [XXII-21], the IC50 at p120γ (PI3Kγ) and at p110α/p85α (PI3Kα) was 1000 to 10000 nM each time.

On to `CC1(C)Cc2nc(N3CCOc4ccc(-c5ccc6occc(=O)c6c5)cc43)sc2C(=O)N1` [XXIII-6], for which the half-maximal inhibitory concentration (IC50) at p120γ (PI3Kγ) and on p110α/p85α (PI3Kα) was 100 to 1000 nM in each case.

As to `C=CC(=O)n1cc(-c2ccc3c(c2)N(c2nc4c(s2)C(=O)NC(C)(C)C4)CCO3)cn1` [XXIII-5, 2-(6-(1-acryloyl-1H-pyrazol-4-yl)-2H-benzo[b][1,4]oxazin-4(3H)-yl)-6,6-dimethyl-6,7-dihydrothiazolo[5,4-c]pyridin-4(5H)-one], the IC50 at p110α/p85α (PI3Kα) fell in the range of 100 to 1000 nM.

For `CC1(C)Cc2nc(N3CCOc4ccc(NC(=O)[C@@H]5CCC(=O)O5)cc43)sc2C(=O)N1` [XXIII-1], the IC50 on p120γ (PI3Kγ) and at p110α/p85α (PI3Kα) was 100 to 1000 nM in each case.

Take `O=C(N1CCN(Cc2cc3nc(-c4cccc5[nH]ncc45)nc(N4CCOCC4)c3s2)CC1)n1ccnc1` [XXII-16, (4-((2-(1H-indazol-4-yl)-4-morpholinothieno[3,2-d]pyrimidin-6-yl)methyl)piperazin-1-yl)(1H-imidazol-1-yl)methanone]: the IC50 on p110α/p85α (PI3Kα) lay within 10 to 100 nM.

As for `C=C[C@@H]1C[C@]1(NC(=O)[C@@H]1CC(OC(=O)N2Cc3cccc(F)c3C2)CN1C(=O)[C@H](CCNC(=O)[C@H]1CCC(=O)O1)NC(=O)OC(C)(C)C)C(=O)NS(=O)(=O)C1CC1` (stereo partly drawn) [XVI-10, (5S)-1-((S)-2-(tert-butoxycarbonylamino)-4-((R)-5-oxotetrahydrofuran-2-carboxamido)butanoyl)-5-((1R,2S)-1-(cyclopropylsulfonylcarbamoyl)-2-vinylcyclopropylcarbamoyl)pyrrolidin-3-yl 4-fluoroisoindoline-2-carboxylate], the IC50 in assay [1] lay in the range of 100 to 1000 nM.

Turning to `CC(=O)CC(=O)N1CCN(Cc2cc3nc(-c4cccc5[nH]ncc45)nc(N4CCOCC4)c3s2)CC1` [XXII-14], the IC50 on p110α/p85α (PI3Kα) lay within 10 to 100 nM.

Consider `C=CS(=O)(=O)Oc1cccc(-c2nc(N3CCOCC3)c3sc(CN(C)S(=O)(=O)C=C)cc3n2)c1` [XXII-9], for which the IC50 at p120γ (PI3Kγ) and on p110α/p85α (PI3Kα) was 100 to 1000 nM throughout.

With `C=C[C@@H]1C[C@]1(NC(=O)[C@@H]1CC(OC(=O)N2Cc3cccc(F)c3C2)CN1C(=O)CNC(=O)[C@H]1CCC(=O)O1)C(=O)NS(=O)(=O)C1CC1` (stereo partly drawn) [XVI-12, (5S)-5-((1R,2S)-1-(cyclopropylsulfonylcarbamoyl)-2-vinylcyclopropylcarbamoyl)-1-(2-((R)-5-oxotetrahydrofuran-2-carboxamido)acetyl)pyrrolidin-3-yl 4-fluoroisoindoline-2-carboxylate], the IC50 in assay [1] was 100 to 1000 nM.

`C=C[C@@H]1C[C@]1(NC(=O)[C@@H]1CC(OC(=O)N2Cc3cccc(F)c3C2)CN1C(=O)[C@H](CCNC(=O)[C@@H]1CCC(=O)O1)NC(=O)OC(C)(C)C)C(=O)NS(=O)(=O)C1CC1` (stereo partly drawn) [XVI-11, (5S)-1-((S)-2-(tert-butoxycarbonylamino)-4-((S)-5-oxotetrahydrofuran-2-carboxamido)butanoyl)-5-((1R,2S)-1-(cyclopropylsulfonylcarbamoyl)-2-vinylcyclopropylcarbamoyl)pyrrolidin-3-yl 4-fluoroisoindoline-2-carboxylate]: the IC50 in assay [1] fell in the range of 100 to 1000 nM.

As to `C[C@H]1OC(=O)[C@H]1NC(=O)N1CCN(Cc2cc3nc(-c4cccc5[nH]ncc45)nc(N4CCOCC4)c3s2)CC1` [XXII-13], the IC50 on p120γ (PI3Kγ) and on p110α/p85α (PI3Kα) was 100 to 1000 nM throughout.

As to `O=C1CC[C@H](C(=O)N2CCN(c3ccnc4ccc(/C=C5\SC(Nc6c(Cl)cccc6Cl)=NC5=O)cc34)CC2)O1` [XXIV-1], the IC50 fell in the range of 100 to 1000 nM at p120γ (PI3Kγ) and 10 to 100 nM on p110α/p85α (PI3Kα).

Consider `C=C[C@@H]1C[C@]1(NC(=O)[C@@H]1CC(OC(=O)N2Cc3cccc(F)c3C2)CN1C(=O)[C@H]1CCC(=O)O1)C(=O)NS(=O)(=O)C1CC1` (stereo partly drawn) [XVI-22, (5S)-5-((1R,2S)-1-(cyclopropylsulfonylcarbamoyl)-2-vinylcyclopropylcarbamoyl)-1-((R)-5-oxotetrahydrofuran-2-carbonyl)pyrrolidin-3-yl 4-fluoroisoindoline-2-carboxylate], for which, in assay [1], the IC50 is over 1000 nM.

`C=CS(=O)(=O)N1CCN(Cc2cc3nc(-c4cccc5[nH]ncc45)nc(N4CCOCC4)c3s2)CC1` [XXII-8, 4-(2-(1H-indazol-4-yl)-6-((4-(vinylsulfonyl)piperazin-1-yl)methyl)thieno[3,2-d]pyrimidin-4-yl)morpholine]: the IC50 at p120γ (PI3Kγ) and on p110α/p85α (PI3Kα) was 100 to 1000 nM throughout.

As to `CC1(C)Cc2nc(N3CCOc4ccc(C(=O)N5C[C@H]6C[C@@H]5C(=O)O6)cc43)sc2C(=O)N1` [XXIII-3], the IC50 on p120γ (PI3Kγ) and at p110α/p85α (PI3Kα) was 100 to 1000 nM throughout.

Turning to `CC1(C)Cc2nc(N3CCOc4ccc(NC(=O)[C@H]5CCC(=O)O5)cc43)sc2C(=O)N1` [XXIII-2], the IC50 at p120γ (PI3Kγ) and at p110α/p85α (PI3Kα) was 100 to 1000 nM in each case.

As to `O=C1O[C@H]2C[C@@H]1N(Cc1cc(O)cc(-c3nc(N4CCOCC4)c4sccc4n3)c1)C2` [XXII-20], the IC50 on p120γ (PI3Kγ) was 1000 to 10000 nM; at p110α/p85α (PI3Kα), 100 to 1000 nM.

As to `CC(C)Oc1c(N2CCN(Cc3cc4nc(-c5cccc6[nH]ncc56)nc(N5CCOCC5)c4s3)CC2)c(=O)c1=O` [XXII-15], the IC50 at p120γ (PI3Kγ) lay in the range of 100 to 1000 nM; on p110α/p85α (PI3Kα), 10 to 100 nM.

On to `C=CC(=O)N1CCN(Cc2cc3nc(-c4ccccc4)nc(N4CCOCC4)c3s2)CC1` [XXII-19], for which the IC50 at p110α/p85α (PI3Kα) lay within 1000 to 10000 nM.

On to `C=C[C@@H]1C[C@]1(NC(=O)[C@@H]1CC(OC(=O)N2Cc3cccc(F)c3C2)CN1C(=O)[C@H](CNC(=O)[C@H]1CCC(=O)O1)NC(=O)OC(C)(C)C)C(=O)NS(=O)(=O)C1CC1` (stereo partly drawn) [XVI-20, (5S)-1-((S)-2-(tert-butoxycarbonylamino)-3-((R)-5-oxotetrahydrofuran-2-carboxamido)propanoyl)-5-((1R,2S)-1-(cyclopropylsulfonylcarbamoyl)-2-vinylcyclopropylcarbamoyl)pyrrolidin-3-yl 4-fluoroisoindoline-2-carboxylate], for which the IC50 in assay [1] was 1 to 10 nM.

Regarding `O=C(N1CCN(Cc2cc3nc(-c4ccccc4)nc(N4CCOCC4)c3s2)CC1)n1ccnc1` [XXII-18], at p110α/p85α (PI3Kα), the IC50 lay in the range of 1000 to 10000 nM.

On to `C=C[C@@H]1C[C@]1(NC(=O)[C@@H]1CC(OC(=O)N2Cc3cccc(F)c3C2)CN1C(=O)[C@@H]1CCC(=O)O1)C(=O)NS(=O)(=O)C1CC1` (stereo partly drawn) [XVI-23, (5S)-5-((1R,2S)-1-(cyclopropylsulfonylcarbamoyl)-2-vinylcyclopropylcarbamoyl)-1-((S)-5-oxotetrahydrofuran-2-carbonyl)pyrrolidin-3-yl 4-fluoroisoindoline-2-carboxylate], for which the IC50 in assay [1] was 100 to 1000 nM.
